# Results as given in patent US11230683B2 (priority 2020, dated 2022).
# Values joined by “and” are separate entries in the source; they are usually repeats but may differ in a detail not shown here. Equal values may be shown once. Read-outs that look alike come from different tables or passages of the source.
# Assays:
# [1] = molecular target: T1, BuChE from equine serum (eqBuChE) (Equus caballus, UniProt P81908); assay: biochemical; format: biochemical
# T1 construct: The BuChE freeze-dried from equine serum (eqBuChE, Sigma Aldrich); purchased Sigma Aldrich; host or cells: equine serum
# [2] = molecular target: T2, human erythrocyte AChE (hAChE) (Homo sapiens, UniProt P22303); assay: biochemical; format: biochemical
# T2 construct: The human erythrocyte AChE (hAChE, aqueous buffer solution); purchased Sigma Aldrich; host or cells: human erythrocytes
# T2 sequence (P22303 32-617 isoform P22303-2 limits assumed): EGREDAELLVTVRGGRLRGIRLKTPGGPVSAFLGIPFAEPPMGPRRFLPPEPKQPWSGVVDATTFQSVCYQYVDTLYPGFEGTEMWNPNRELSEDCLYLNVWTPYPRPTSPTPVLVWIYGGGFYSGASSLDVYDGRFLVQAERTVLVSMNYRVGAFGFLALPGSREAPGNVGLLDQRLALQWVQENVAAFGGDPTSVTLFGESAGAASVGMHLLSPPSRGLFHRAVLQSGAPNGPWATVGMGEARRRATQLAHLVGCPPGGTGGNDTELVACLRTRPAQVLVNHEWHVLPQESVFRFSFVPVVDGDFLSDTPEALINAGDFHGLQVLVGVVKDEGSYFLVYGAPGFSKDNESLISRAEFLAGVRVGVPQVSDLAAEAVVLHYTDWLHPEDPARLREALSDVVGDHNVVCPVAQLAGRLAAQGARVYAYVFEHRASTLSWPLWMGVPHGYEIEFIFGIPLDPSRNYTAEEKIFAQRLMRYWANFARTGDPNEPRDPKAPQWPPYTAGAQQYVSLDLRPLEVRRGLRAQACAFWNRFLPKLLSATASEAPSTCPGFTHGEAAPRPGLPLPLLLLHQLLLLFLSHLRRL
# T1 sequence (P81908 whole entry): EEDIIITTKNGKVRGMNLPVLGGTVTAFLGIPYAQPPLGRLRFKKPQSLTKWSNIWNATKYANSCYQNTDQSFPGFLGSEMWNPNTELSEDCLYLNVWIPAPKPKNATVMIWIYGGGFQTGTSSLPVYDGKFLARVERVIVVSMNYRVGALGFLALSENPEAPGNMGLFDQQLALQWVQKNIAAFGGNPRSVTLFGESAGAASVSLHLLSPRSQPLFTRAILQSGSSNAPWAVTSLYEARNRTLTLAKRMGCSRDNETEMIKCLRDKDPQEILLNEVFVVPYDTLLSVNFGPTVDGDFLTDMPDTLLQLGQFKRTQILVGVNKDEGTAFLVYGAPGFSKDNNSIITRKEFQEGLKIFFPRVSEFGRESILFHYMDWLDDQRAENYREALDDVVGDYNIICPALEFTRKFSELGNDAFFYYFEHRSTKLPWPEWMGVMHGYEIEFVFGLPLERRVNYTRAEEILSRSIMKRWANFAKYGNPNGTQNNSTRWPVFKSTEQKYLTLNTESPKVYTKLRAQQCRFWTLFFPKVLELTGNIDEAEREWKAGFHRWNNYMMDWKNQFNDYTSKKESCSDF
Compound,IC50 ([1]; IC50 eqBuChE),IC50 ([2]; IC50 hAChE),other results
"O=P(Oc1ccccc1)(Oc1ccccc1)Oc1ccc(OP(=O)(Oc2ccccc2)Oc2ccccc2)cc1 [Compound 1, Hydroquinone bis(diphenylphosphate)]",186 µM,42 µM,–
"O=P(Oc1ccccc1)(Oc1ccccc1)Oc1ccc(-c2ccc(OP(=O)(Oc3ccccc3)Oc3ccccc3)cc2)cc1 [Compound 2, 4,4′-dihydroxybiphenyl bis(diphenylphosphate)]",155 µM and 244 µM,38.4 µM and 128 µM,–
"O=P(Oc1ccccc1)(Oc1ccccc1)Oc1ccc(Sc2ccc(OP(=O)(Oc3ccccc3)Oc3ccccc3)cc2)cc1 [Compound 3, 4,4′-dihydroxydiphenylthioether bis(diphenylphosphate)]",166 µM,34 µM,–
"O=P(Oc1ccccc1)(Oc1ccccc1)Oc1ccc(Oc2ccc(OP(=O)(Oc3ccccc3)Oc3ccccc3)cc2)cc1 [Compound 4, 4,4′-dihydroxydiphenylether bis(diphenylphosphate)]",118 µM,33.9 µM,–
"O=P(Oc1ccccc1)(Oc1ccccc1)Oc1cc(OP(=O)(Oc2ccccc2)Oc2ccccc2)cc(OP(=O)(Oc2ccccc2)Oc2ccccc2)c1 [Compound 5, 1,3,5-phloroglucinol tris(bis(diphenylphosphate))]",100 µM,–,–
"CCCCC(CC)(COP(=O)(Oc1ccccc1)Oc1ccccc1)COP(=O)(Oc1ccccc1)Oc1ccccc1 [Compound 6, 2-butyl-2-ethyl-1,3-propanediol bis(diphenylphosphate)]",93.7 µM,26.3 µM,–
"CCC(COP(=O)(Oc1ccccc1)Oc1ccccc1)(COP(=O)(Oc1ccccc1)Oc1ccccc1)COP(=O)(Oc1ccccc1)Oc1ccccc1 [Compound 7, trimethylolpropane tris(diphenylphosphate)]",145 µM,22 µM,–
"CCCCC(CC)COP(=O)(Oc1ccccc1)Oc1ccccc1 (stereo not drawn) [Compound A, 2-ethylhexyl diphenylphosphate]",1.93 µM,35 µM,–
"Cc1ccccc1OP(=O)(Oc1ccccc1C)Oc1ccccc1C [Compound B, Tri(ortho-cresyl)phosphate]",10 µM,40.7 µM,–
"Cc1cccc(OP(=O)(Oc2cccc(C)c2)Oc2cccc(C)c2)c1 [Compound C, Tri(meta-cresyl)phosphate]",6.24 µM,25.2 µM,–
"Cc1ccc(OP(=O)(Oc2ccc(C)cc2)Oc2ccc(C)cc2)cc1 [Compound D, Tri(para-cresyl)phosphate]",116 µM,26.3 µM,–
"O=P(Oc1c(F)cccc1F)(Oc1c(F)cccc1F)Oc1c(F)cccc1F [Compound F, Tri(2,6-difluorophenyl)phosphate]",20 µM,12.9 µM,–
"CC(C)(C)c1ccc(OP(=O)(Oc2ccccc2)Oc2ccc(C(C)(C)C)cc2)cc1 [Compound H, di(p-tertbutylphenyl)phenylphosphate]",280 µM,27.6 µM,–
"CC(C)(C)c1ccc(OP(=O)(Oc2ccc(C(C)(C)C)cc2)Oc2ccc(C(C)(C)C)cc2)cc1 [Compound I, Tri(p-tert-butylphenyl)phosphate]",194 µM,17 µM,"action on butyrylcholinesterase, in words [1]: reduced inhibition; action on acetylcholinesterase, in words [2]: active"
"NP(=O)(Oc1ccccc1)Oc1ccccc1 [Compound K, Diphenyl phosphoroamidate]",–,–,IC50 [1]: 136 µM; IC50 [2]: 38.1 µM
"O=P(OCCCl)(OCCCl)OCCCl [Compound N, tris(chloroethyl)phosphate]",315 µM,28.7 µM,–
Saligenin cresyl phosphate [Compound J],–,–,IC50 eqBuChE [1]: 0.7 µg/mL
Tricresyl phosphate [Compound P],–,–,IC50 eqBuChE [1]: 0.7 µg/mL; IC50 hAChE [2]: 16.9 µg/mL
